Experimental data taken from PMC12503909, “C1′‐Branched Acyclic Nucleoside Phosphonates as Inhibitors of Plasmodium Falciparum 6‐Oxopurine Phosphoribosyltransferase” (Chemmedchem, 2025).
Where a name gives a salt, the structure may show the parent alone.

Assays:
human HGPRT = molecular target: T1, human HGPRT (Homo sapiens, UniProt P00492); assay: Determination of Ki values, human HGPRT; type: biochemical; details: 0.1 M Tris-HCl, 10 mM MgCl2, pH 7.4; guanine 60 μM, variable PRib-PP; mean ± SD of three independent experiments
T1 construct: made in house
T1 sequence (P00492 1-218): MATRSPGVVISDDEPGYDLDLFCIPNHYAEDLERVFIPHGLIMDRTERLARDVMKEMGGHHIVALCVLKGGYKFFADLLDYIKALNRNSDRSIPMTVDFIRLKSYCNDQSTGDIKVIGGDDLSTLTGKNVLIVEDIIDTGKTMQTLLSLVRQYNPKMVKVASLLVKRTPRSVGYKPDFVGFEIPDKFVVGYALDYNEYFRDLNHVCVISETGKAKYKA
Protocol: (§1) The human and Pf enzymes were purified as described previously.^[ [7] ^, [26] ^] All assays were performed in 0.1 M Tris‐HCl, 10 mM MgCl2, pH 7.4. […] The K i was calculated using the equation, v o = Vmax.[S]o/[S]o + K m(app) and K m(app) = K m [1 + [I]/K i ].

P. falciparum W2 = assay: In vitro antimalarial activity, 3H-hypoxanthine growth inhibition assay, W2 line; type: cell-based, Plasmodium falciparum; details: Plasmodium falciparum, W2, Erythrocyte, 96 h, Pf infected erythrocytes, W2 strain resistant to chloroquine, mean ± SD of three independent experiments
Protocol: (§2) The IC50 values were determined as previously described.^[ [32] ^] P. falciparum D6 (Sierra‐Leone) laboratory line, sensitive to most antimalarial drugs, and W2 (Indochina) line, resistant to chloroquine and pyrimethamine, were maintained as previously described^[ [33] ^] in medium consisted of 10.4 g L^−1 RPMI‐1640‐LPLF powder (Gibco BRL), 5.97 g L^−1 HEPES buffer (MP Biomedicals, USA), 2.0 g L^−1 d‐glucose (BDH chemicals, Australia), 0.05 g L^−1 hypoxanthine (Sigma, USA) and 40 mg L^−1 gentamycin (Pfizer, Australia), supplemented with 0.21% NaHCO3 and 10% human plasma prior to use. Red blood cells O (Rh+) type were obtained from the Australian Red Cross Blood Service and added to 4% haematocrit. Cultures were routinely synchronized using D‐sorbitol.^[ [34] ^] To evaluate the antimalarial activity of the ANPs, the ^3H‐hypoxanthine growth inhibition assay was utilized, where the uptake of ^3H‐hypoxanthine by malaria parasites is used as a surrogate marker for parasite growth. For these assays, stock solutions of the tested compounds were made to concentrations of 20–40 mM in DMSO or water and subsequently diluted in hypoxanthine‐free complete media prior to assay. The assays (in 96‐well plate format) were initiated when most parasites (> 90%) were at the early trophozoite (ring) stage. Parasite cultures (100 μL per well) at 0.5% initial parasitemia and 2% hematocrit in hypoxanthine‐free RPMI1640‐LPLF medium were exposed to ten twofold serial dilutions of the compounds and chloroquine (reference drug) for 96 h, with ^3H‐hypoxanthine (0.2 μCi well^−1) added ≈48 h after the beginning of the experiment.
(§3) The ^3H‐hypoxanthine incorporation data were analyzed, and sigmoidal growth inhibition curves were produced by nonlinear regression analysis of the ^3H‐hypoxanthine incorporation data versus log‐transformed concentrations of the compounds using Graphpad Prism V5.0 software (GraphPad Software Inc. USA). […] The IC50 values were based on three independent experiments, with mean ± SD calculated.

CCRF-CEM = assay: Cytotoxicity of the prodrug in human cells (CellTiter-Glo 2.0), CCRF-CEM; type: cell-based; details: 10 µM, versus untreated control; mean ± SD
Protocol: (§4) Compound cytotoxicity was evaluated in nontumor human dermal fibroblasts (NHDF), CCRF‐CEM, HL‐60, HeLa, and HepG2 cells. All cell lines were obtained from ATCC (Manassas, VA, USA). The cytotoxicity was assayed using CellTiter‐Glo 2.0 detection reagent (Promega, Madison, USA) according to the manufacturer's protocol. The concentration of prodrug used in this assay was 10 μM. This concentration was chosen as it would more accurately reflect the expected concentration in an in vitro assessment.

P. falciparum D6 = assay: In vitro antimalarial activity, 3H-hypoxanthine growth inhibition assay, D6 line; type: cell-based, Plasmodium falciparum; details: Plasmodium falciparum, D6, Erythrocyte, 96 h, Pf infected erythrocytes, D6 strain sensitive to chloroquine, mean ± SD of three independent experiments
Protocol: as §2, §3

HepG2 = assay: Cytotoxicity of the prodrug in human cells (CellTiter-Glo 2.0), HepG2; type: cell-based; details: 10 µM, versus untreated control; mean ± SD
Protocol: as §4

HL-60 = assay: Cytotoxicity of the prodrug in human cells (CellTiter-Glo 2.0), HL-60; type: cell-based; details: 10 µM, versus untreated control; mean ± SD
Protocol: as §4

NHDF = assay: Cytotoxicity of the prodrug in human cells (CellTiter-Glo 2.0), NHDF; type: cell-based; details: 10 µM, versus untreated control; mean ± SD
Protocol: as §4

HeLa = assay: Cytotoxicity of the prodrug in human cells (CellTiter-Glo 2.0), HeLa; type: cell-based; details: 10 µM, versus untreated control; mean ± SD
Protocol: as §4

PfHGXPRT = molecular target: T2, PfHGXPRT (Plasmodium falciparum, UniProt P20035); assay: Determination of Ki values, PfHGXPRT; type: biochemical; details: 0.1 M Tris-HCl, 10 mM MgCl2, pH 7.4; guanine 60 μM, variable PRib-PP; mean ± SD of three independent experiments
T2 construct: made in house
T2 sequence (P20035 1-231): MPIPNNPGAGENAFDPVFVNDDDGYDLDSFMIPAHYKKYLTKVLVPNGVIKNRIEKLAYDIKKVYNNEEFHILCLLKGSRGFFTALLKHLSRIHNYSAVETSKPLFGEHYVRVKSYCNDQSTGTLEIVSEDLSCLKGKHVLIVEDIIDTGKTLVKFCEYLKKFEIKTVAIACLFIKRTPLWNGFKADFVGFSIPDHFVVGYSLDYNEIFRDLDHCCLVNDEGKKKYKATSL
Protocol: as §1

O=c1[nH]cnc2c1ncn2C(COCP(=O)(O)O)OCCO (stereo not drawn) [20a, Sodium salt of ((2‐(2‐hydroxyethoxy)‐2‐(hypoxanthin‐9‐yl)ethoxy)methyl) phosphonic acid]
Ki (human HGPRT): 160 µM

CCOC(=O)[C@H](Cc1ccccc1)NP(=O)(COCC(OCCO)n1cnc2c(=O)[nH]c(N)nc21)N[C@@H](Cc1ccccc1)C(=O)OCC (mixture of isomers) [21b, Bis‐(L‐phenylalaninate ethyl ester) prodrug of ((2‐(guanin‐9‐yl)‐2‐(2‐hydroxyethoxy)ethoxy)methyl)phosphonic acid]
IC50 (P. falciparum W2): 79 ± 8 µM | Viability CCRF-CEM (CCRF-CEM): 97 ± 1 % control | IC50 (P. falciparum D6): 84 ± 10 µM | Viability HepG2 (HepG2): 93 ± 4 % control | Viability HL-60 (HL-60): 100 ± 2 % control | Viability NHDF (NHDF): 94 ± 8 % control | Viability HeLa (HeLa): 91 ± 2 % control

O=c1[nH]cnc2c1ncn2C(COCCP(=O)(O)O)OCCO (stereo not drawn) [20c, Sodium salt of (2‐(2‐(2‐hydroxyethoxy)‐2‐(hypoxanthin‐9‐yl)ethoxy)ethyl)phosphonic acid]
Ki (PfHGXPRT): 10 ± 5 µM | Ki (human HGPRT): > 20 µM

CCOC(COCCP(=O)(O)O)n1cnc2c(=O)[nH]c(N)nc21 (stereo not drawn) [compound 25, Sodium salt of (2‐(2‐(guanin‐9‐yl)‐2‐ethoxyethoxy)ethyl)phosphonic acid]
Ki (PfHGXPRT): 3 ± 0.5 µM | Ki (human HGPRT): 3.7 ± 0.9 µM

CCOC(=O)[C@H](Cc1ccccc1)NP(=O)(COCCC(OCCCO)n1cnc2c(=O)[nH]c(N)nc21)N[C@@H](Cc1ccccc1)C(=O)OCC (stereo partly drawn) [21f, Bis‐(L‐phenylalaninate ethyl ester) prodrug of ((3‐(3‐hydroxypropoxy)‐3‐(guanin‐9‐yl)propoxy)methyl) phosphonic acid]
IC50 (P. falciparum W2): 26 ± 14 µM | Viability CCRF-CEM (CCRF-CEM): 103 ± 1 % control | IC50 (P. falciparum D6): 13 ± 2 µM | Viability HepG2 (HepG2): 110 ± 2 % control | Viability HL-60 (HL-60): 105 ± 2 % control | Viability NHDF (NHDF): 116 ± 4 % control | Viability HeLa (HeLa): 106 ± 1 % control

Nc1nc2c(ncn2C(COCCP(=O)(O)O)OCCO)c(=O)[nH]1 (stereo not drawn) [20d, Sodium salt of (2‐(2‐(2‐hydroxyethoxy)‐2‐(guanin‐9‐yl)ethoxy)ethyl)phosphonic acid]
Ki (PfHGXPRT): 0.4 ± 0.1 µM | Ki (human HGPRT): 2.5 ± 0.4 µM

O=c1[nH]c(Cl)nc2c1ncn2C(COCCP(=O)(O)O)OCCO (stereo not drawn) [20e, Sodium salt of (2‐(2‐(2‐chlorohypoxanthin‐9‐yl)‐2‐(2‐hydroxyethoxy)ethoxy)ethyl)phosphonic acid]
Ki (PfHGXPRT): 50 ± 10 µM | Ki (human HGPRT): > 60 µM

O=c1[nH]cnc2c1ncn2C(COCCP(=O)(O)O)OCCOCP(=O)(O)O (stereo not drawn) [18a, Sodium salt of (2‐(2‐(hypoxanthin‐9‐yl)‐2‐(2‐(phosphonatomethoxy)ethoxy)ethoxy)ethyl)phosphonic acid]
Ki (PfHGXPRT): 5 ± 1 µM | Ki (human HGPRT): > 60 µM

O=c1[nH]cnc2c1cnn2C(COCCP(=O)(O)O)OCCO (stereo not drawn) [20f, Sodium salt of (2‐(2‐(2‐hydroxyethoxy)‐2‐(4‐oxo‐4,5‐dihydro‐1H‐pyrazolo[3,4‐d]pyrimidin‐1‐yl)ethoxy)ethyl)phosphonic acid]
Ki (PfHGXPRT): > 60 µM | Ki (human HGPRT): > 60 µM

Nc1nc2c(ncn2C(COCCP(=O)(O)O)OCCOCP(=O)(O)O)c(=O)[nH]1 (stereo not drawn) [18b, Sodium salt of (2‐(2‐(guanin‐9‐yl)‐2‐(2‐(phosphonatomethoxy)ethoxy)ethoxy)ethyl)phosphonic acid]
Ki (PfHGXPRT): 1 ± 0.2 µM | Ki (human HGPRT): 0.7 ± 0.4 µM

O=c1[nH]cnc2c1cnn2C(CCOCP(=O)(O)O)OCCCO (stereo not drawn) [20i, Sodium salt of ((3‐(3‐hydroxypropoxy)‐3‐(4‐oxo‐4,5‐dihydro‐1H‐pyrazolo[3,4‐d]pyrimidin‐1‐yl)propoxy)methyl)phosphonic acid]
Ki (PfHGXPRT): > 60 µM | Ki (human HGPRT): > 60 µM

O=c1[nH]cnc2c1ncn2C(CCOCP(=O)(O)O)OCCCO (stereo not drawn) [20g, Sodium salt of ((3‐(3‐hydroxypropoxy)‐3‐(hypoxanthin‐9‐yl)propoxy)methyl)phosphonic acid]
Ki (PfHGXPRT): > 60 µM | Ki (human HGPRT): > 60 µM

CCOC(=O)[C@H](Cc1ccccc1)NP(=O)(COCCC(OCCCO)n1cnc2c(=O)[nH]cnc21)N[C@@H](Cc1ccccc1)C(=O)OCC (stereo partly drawn) [21e, Bis‐(L‐phenylalaninate ethyl ester) prodrug of ((3‐(3‐hydroxypropoxy)‐3‐(hypoxanthin‐9‐yl)propoxy)methyl) phosphonic acid]
IC50 (P. falciparum W2): 41 ± 5 µM | Viability CCRF-CEM (CCRF-CEM): 105 ± 2 % control | IC50 (P. falciparum D6): 14 ± 2 µM | Viability HepG2 (HepG2): 106 ± 3 % control | Viability HL-60 (HL-60): 110 ± 1 % control | Viability NHDF (NHDF): 110 ± 7 % control | Viability HeLa (HeLa): 105 ± 1 % control

Nc1nc2c(ncn2C(COCP(=O)(O)O)OCCO)c(=O)[nH]1 (stereo not drawn) [20b, Sodium salt of ((2‐(guanin‐9‐yl)‐2‐(2‐hydroxyethoxy)ethoxy)methyl)phosphonic acid]
Ki (PfHGXPRT): 5 ± 1 µM | Ki (human HGPRT): 30 ± 5 µM

CCOC(=O)[C@H](Cc1ccccc1)NP(=O)(COCCC(OCCCO)n1ncc2c(=O)[nH]cnc21)N[C@@H](Cc1ccccc1)C(=O)OCC (stereo partly drawn) [21g, Bis‐(L‐phenylalaninateethyl ester) prodrug of ((3‐(3‐hydroxypropoxy)‐3‐(4‐oxo‐4,5‐dihydro‐1H‐pyrazolo[3,4‐d]pyrimidin‐1‐yl)propoxy)methyl) phosphonic acid]
IC50 (P. falciparum W2): 15 ± 2 µM | Viability CCRF-CEM (CCRF-CEM): 105 ± 2 % control | IC50 (P. falciparum D6): 11 ± 1 µM | Viability HepG2 (HepG2): 111 ± 6 % control | Viability HL-60 (HL-60): 107 ± 2 % control | Viability NHDF (NHDF): 114 ± 3 % control | Viability HeLa (HeLa): 106 ± 2 % control

CCOC(=O)[C@H](Cc1ccccc1)NP(=O)(CCOCC(OCCO)n1cnc2c(=O)[nH]c(N)nc21)N[C@@H](Cc1ccccc1)C(=O)OCC (stereo partly drawn) [21d, Bis‐(L‐phenylalaninate ethyl ester) prodrug of (2‐(2‐(guanin‐9‐yl)‐2‐(2‐hydroxyethoxy)ethoxy)ethyl) phosphonic acid]
IC50 (P. falciparum W2): 39 ± 5 µM | Viability CCRF-CEM (CCRF-CEM): 99 ± 4 % control | IC50 (P. falciparum D6): 64 ± 6 µM | Viability HepG2 (HepG2): 107 ± 2 % control | Viability HL-60 (HL-60): 105 ± 1 % control | Viability NHDF (NHDF): 112 ± 1 % control | Viability HeLa (HeLa): 100 ± 2 % control

Nc1nc2c(ncn2C(CCOCP(=O)(O)O)OCCCO)c(=O)[nH]1 (stereo not drawn) [20h, Sodium salt of ((3‐(guanin‐9‐yl)‐3‐(3‐hydroxypropoxy)propoxy)methyl)phosphonic acid]
Ki (PfHGXPRT): > 60 µM | Ki (human HGPRT): 10 ± 3 µM

CCOC(=O)[C@H](Cc1ccccc1)NP(=O)(CCOCC(OCCOCP(=O)(N[C@@H](Cc1ccccc1)C(=O)OCC)N[C@@H](Cc1ccccc1)C(=O)OCC)n1cnc2c(=O)[nH]c(N)nc21)N[C@@H](Cc1ccccc1)C(=O)OCC (mixture of isomers) [19b, Tetra‐(L‐phenylalaninate ethyl ester) prodrug of (2‐(2‐(guanin‐9‐yl)‐2‐(2‐(phosphonatomethoxy)ethoxy)ethoxy)ethyl)phosphonic acid]
IC50 (P. falciparum W2): 8.8 ± 2.6 µM | IC50 (P. falciparum D6): 4.3 ± 0.7 µM
